In general, MIC refers to the least concentration at which growth counts as inhibited.

These results are taken from PMC5397516, “Insights into the Mode of Action of the Sactibiotic Thuricin CD” (Frontiers in Microbiology, 2017).

Like-named read-outs stand apart in the source and are kept apart here. Where no end group is shown, it is not given here.

Assay [1] concerns B. firmus DPC6349. Nature of the assay: Minimum inhibitory concentration (MIC) assay, two-fold serial dilutions in LB broth. The class given is cell-based, Bacillus firmus. As to conditions: for MIC, fold higher than thuricin CD: B. firmus DPC6349, in molar values. The protocol: In this study, B. firmus DPC6349 was utilized as a surrogate thuricin CD-sensitive host, in lieu of thuricin CD-sensitive C. difficile strains. The aerobic growth conditions of DPC6349, in conjunction with its class I status, facilitated the FC experiments in this study. MIC assays were conducted as previously described with minor modifications ([Mathur et al., 2013]). Briefly, cells of the bacteriocin-sensitive strain B. firmus DPC6349 were grown overnight for 16 h in LB broth at 37°C with vigorous agitation (150 rpm). The following day, the cells were subcultured until they reached mid-logarithmic phase (an OD600 of approximately 0.5). At this point, cells were diluted such that the final inoculum for MIC assays was approximately 5 × 10^5 cfu/ml. Thuricin CD peptides, Nisin A and lacticin 3147 peptides were resuspended in LB broth. The potassium ionophore, valinomycin, was initially reconstituted in DMSO (Molecular Probes) prior to diluting in PBS and subsequently diluting in LB broth. All antimicrobials were finally diluted in LB broth to give the desired starting concentrations and two-fold serial dilutions were performed in 96-well microtitre plates, for MIC assays. MIC readings were taken at 18 h and the MIC was defined as the lowest concentration of the antimicrobial at which there was no visible growth of the target strain. Assays were conducted in triplicate.

Assay [2] has as its system B. firmus DPC6349 cells. Nature of the assay: Time course flow cytometry of membrane potential (DiOC2(3)), cell size (FSC) and granularity (SSC). Type of assay: cell-based, Bacillus firmus. The text has this:
Used alone or in combination with fluorescent probes, FC enables the assessment of various structural and functional cell properties, often leading to a deeper characterization of the physiological heterogeneity of a microbial population ([Díaz et al., 2010]). Membrane potential in microbial cells can be detected by FC following staining with fluorescent lipophilic cell-permeant probes such as DiOC2(3). […] Conversely, fluorescence-independent monitoring by FC of the forward (FSC) and side-angle (SSC) light scattering properties of a bacterial population provides useful information about morphological parameters such as cell size and internal granularity/complexity, respectively ([Díaz et al., 2010]; [Shapiro, 2015]). The impact of the thuricin CD peptides, Trnα and Trnβ, on the membrane potential and morphology of sensitive B. firmus DPC6349 cells was therefore assessed by FC as follows. Cells from a 100 μl aliquot of an overnight culture were recovered by centrifugation (8260 g for 10 min), diluted 10-fold in 1 ml of LB broth and activated by incubation at 37°C for 30 min. At this point, the cells were diluted a further 25-fold and stained for 30 min with a solution of 6.3 μM DiOC2 (3) (Thermo Fisher Scientific), prepared in PBS and containing 0.21% glucose to energize the cells and thereby generate a large membrane potential. Aliquots of 1.4 ml of stained samples were acquired at medium flow rate (35 μl/sec) using a BD Accuri C6 flow cytometer (Becton Dickinson, Belgium) and a threshold of 10000 on FSC to minimize background. Acquisition and analysis of DiOC2(3) fluorescence (FL3, > 670 nm long pass), cell size (FSC) and cell complexity/granularity (SSC) were carried out using the BD Accuri C6 software v. 1.0.2 (Becton Dickinson, Belgium). The microbial population was identified based on its light scattering properties on FSC versus SSC bi-plots and a gating strategy was used to discriminate it from background particles and cell debris. The time course changes in membrane potential and morphology of DPC6349 cells following challenge with an antimicrobial were assessed using the “Run Unlimited” function of the C6 flow cytometer. Unchallenged DiOC2(3)-stained cells were initially acquired for 2 min to establish baseline levels of membrane potential and morphological parameters. Subsequently, a small aliquot of a 10–15x stock solution of an antimicrobial in PBS was added and its effect on the physiology of the sensitive target monitored over 15–25 min. The impact on the host’s membrane potential of individual, combined and sequentially added thuricin CD peptides, Trnα or Trnβ, was compared to those exerted by the proton motive force (PMF)-depleting agents Nisin A ([Bruno et al., 1992]), lacticin 3147 ([McAuliffe et al., 1998]), and valinomycin ([Shapiro, 2004]). Stock solutions of valinomycin were prepared in DMSO, whereas diluted working solutions were made using PBS. To generate high external potassium conditions and trigger the membrane depolarizing activity of valinomycin ([Shapiro, 2004]; [Cronin, 2015]), 150mM KCl was added to the PBS used to prepare the DiOC2(3) staining solution. Assays were conducted in duplicate.

Where [3] appears, read: B. firmus DPC6349, approx. 5 × 10^5 cfu/ml, LB broth, read at 18 h, no visible growth, triplicate.

Take `CC(C)[C@@H]1NC(=O)[C@H](C)OC(=O)[C@@H](C(C)C)NC(=O)[C@@H](C(C)C)OC(=O)[C@H](C(C)C)NC(=O)[C@H](C)OC(=O)[C@@H](C(C)C)NC(=O)[C@@H](C(C)C)OC(=O)[C@H](C(C)C)NC(=O)[C@H](C)OC(=O)[C@@H](C(C)C)NC(=O)[C@@H](C(C)C)OC1=O` [Valinomycin, valinomycin]: the MIC in assay [1] (setting [3]) came out at 0.69 µg/mL; in assay [1] (Cytobacillus firmus, DPC6349, 18 h), 0.625 µM. Also, the “MIC, fold higher than thuricin CD” value in assay [1] was “five-fold higher”. The “Effect on cell size and granularity” value in assay [2] (156 nM (0.25x MIC), 150 mM extracellular KCl) was “no reduction in cell size or granularity”. Also, in assay [2] (156 nM (0.25x MIC), 150 mM extracellular KCl, DiOC2(3)), the “Effect on membrane potential” value is “immediate and sharp membrane depolarization”.

Regarding “Nisin A (ITSISLCTPGCKTGALMGCNMKTATCHCSIHVSK; also: lantibiotic post-translational modifications (thioether rings), not given here; UniProt P13068 24-57, looked up) [pore-forming single-component lantibiotic bacteriocin]”, the MIC in assay [1] (setting [3]) is 1.046 µg/mL; in assay [1] (B. firmus DPC6349, approx. 5 × 10^5 cfu/ml, LB broth, read at 18 h, no visible growth, triplicate, read-out: MIC), 0.312 µM. Besides, the “MIC, fold higher than thuricin CD” value in assay [1] is recorded as “approximately 2.5 fold”. Besides, in assay [2] (3 μM (approximately 10x MIC)), the “Effect on cell size (FSC) and granularity (SSC)” value is “decreases in cell size (FSC) and granularity/complexity (SSC)”. Besides, the “Effect on membrane potential” value in assay [2] (3 μM (approximately 10x MIC), DiOC2(3) red fluorescence) is listed as “very fast membrane depolarization”. In assay [2] (3 μM (approximately 10x MIC), DiOC2(3)-stained energized cells, duplicate), the “Time to membrane depolarization after adding the peptide” value is no more than 4 min.

`O=C(N[C@H](CO)[C@H](O)c1ccc([N+](=O)[O-])cc1)C(Cl)Cl` [Chloramphenicol, chloramphenicol]: the MIC in assay [1] (setting [3]) was found to be 2.423 µg/mL; in assay [1] (Cytobacillus firmus, B. firmus DPC6349, approx. 5 × 10^5 cfu/ml, LB broth, read at 18 h, no visible growth, triplicate, read-out: MIC) it was 7.5 µM. Besides, the “MIC, fold higher than thuricin CD” value in assay [1] stood at 60 fold. For the same compound, in assay [2] ((approximately 3x MIC), DiOC2(3)), the “Effect on membrane potential and cell size” value is “no membrane depolarization and reduction in cell size”.
